From article PMC7901699, “Challenging inflammatory process at molecular, cellular and in vivo levels via some new pyrazolyl thiazolones” (Journal of Enzyme Inhibition and Medicinal Chemistry, 2021) come the findings set out here.

Assay [1] relates to THP-1 cells. Kind of assay: Monocyte-to-macrophage differentiation assay, M1 polarisation (PMA then LPS). The class given is cell-based, human. The method, then:
Monocytes were cultured and differentiated as described previously. THP-1 cells (human acute monocytic leukaemia lineage, American Type Culture Collection, Manassas, VA) were seeded at a density of 20 × 10^5 cells/ml. A set of cells were exposed to 25 nM of phorbol myristate-acetate (PMA, Calbiochem, Darmstadt, Germany) for 24 h to drive differentiation. Another set was similarly treated with PMA followed by 100 ng/ml of lipopolysaccharide (LPS, invivogen, San Diego, CA, USA) for 72 h. After incubation, the supernatant was aspirated and the density of the adherent cells was estimated using MTS colorimetric cell viability kit (Abcam, Cambridge, UK). The inhibitory actions of different compounds on the differentiation process were evaluated by pre-incubation with different concentrations of each compound for 6 h. Cell viability after treatment was normalised to the reading after PMA exposure following a 6-h incubation with DMSO. All experiments were conducted in triplicates. A positive control for the effect of COX1/COX2 inhibition on monocyte-to-macrophage differentiation was obtained by treatment with diclofenac. IC50 values for each compound were determined by non-linear regression as the best fit values of the log [inhibitor] vs. response curve using GraphPad Prism software.

Assay [2] deals with T1, ovine COX-1 (Ovis aries, UniProt P05979).
T1 construct: purchased Cayman Chemicals Inc. 560131
T1 sequence (P05979 25-600): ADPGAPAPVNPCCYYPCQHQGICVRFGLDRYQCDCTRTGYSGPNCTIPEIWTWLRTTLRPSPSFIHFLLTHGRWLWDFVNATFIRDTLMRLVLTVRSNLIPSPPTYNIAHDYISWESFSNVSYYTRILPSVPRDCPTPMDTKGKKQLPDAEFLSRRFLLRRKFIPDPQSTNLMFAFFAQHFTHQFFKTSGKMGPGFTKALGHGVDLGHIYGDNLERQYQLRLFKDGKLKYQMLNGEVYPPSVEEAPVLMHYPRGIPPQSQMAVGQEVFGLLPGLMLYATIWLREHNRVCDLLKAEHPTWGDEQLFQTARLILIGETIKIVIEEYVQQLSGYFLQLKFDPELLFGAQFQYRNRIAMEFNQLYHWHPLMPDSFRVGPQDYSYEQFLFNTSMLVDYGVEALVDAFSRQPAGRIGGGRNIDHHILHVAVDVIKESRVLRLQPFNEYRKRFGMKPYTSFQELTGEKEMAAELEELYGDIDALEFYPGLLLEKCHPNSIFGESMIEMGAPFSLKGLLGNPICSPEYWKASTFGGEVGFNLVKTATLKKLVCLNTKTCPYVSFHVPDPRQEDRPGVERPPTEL
Kind of assay: In vitro COX-1 inhibition assay (colorimetric COX inhibitor screening kit, Cayman). The class given is biochemical. As to conditions: mean of three determinations. As for the experimental part:
(§1) Both assays were carried out in compliance with the manufacturer’s instructions and in accordance to prior studies[29]^,[33].
(§2) IC50 values (μM) and selectivity indices (SI) were calculated.

In assay [3] the test system is PMA/LPS-stimulated THP-1 (M1 macrophages). Kind of assay: Cytotoxicity assay on differentiated M1 macrophages (MTS). The class given is cell-based, human. Particulars: PMA 24 h, LPS 24 h, then compound 24 h; up to 100 μM. The method, then: To confirm that the previous observations were a consequence of interference of the compounds with the differentiation process rather than a reduction in monocyte viability, THP-1 monocytes were incubated with different concentrations of the compound for 30 h. No difference in cell viability was detected. Moreover, the cytotoxic effects of the drugs on differentiated macrophages were evaluated. Following the incubation of THP-1 cells with 25 nM PMA for 24 h and 100 ng/ml LPS for 24 h, the differentiated macrophages were treated with different concentrations of the compounds for 24 h. Cell viability was assessed using MTS colorimetric cell viability kit (Abcam, Cambridge, UK).

Assay [4] has as its target T2, 15-LOX (Glycine max, UniProt P08170).
T2 construct: purchased Cayman chemicals 760700
T2 sequence (P08170 1-839): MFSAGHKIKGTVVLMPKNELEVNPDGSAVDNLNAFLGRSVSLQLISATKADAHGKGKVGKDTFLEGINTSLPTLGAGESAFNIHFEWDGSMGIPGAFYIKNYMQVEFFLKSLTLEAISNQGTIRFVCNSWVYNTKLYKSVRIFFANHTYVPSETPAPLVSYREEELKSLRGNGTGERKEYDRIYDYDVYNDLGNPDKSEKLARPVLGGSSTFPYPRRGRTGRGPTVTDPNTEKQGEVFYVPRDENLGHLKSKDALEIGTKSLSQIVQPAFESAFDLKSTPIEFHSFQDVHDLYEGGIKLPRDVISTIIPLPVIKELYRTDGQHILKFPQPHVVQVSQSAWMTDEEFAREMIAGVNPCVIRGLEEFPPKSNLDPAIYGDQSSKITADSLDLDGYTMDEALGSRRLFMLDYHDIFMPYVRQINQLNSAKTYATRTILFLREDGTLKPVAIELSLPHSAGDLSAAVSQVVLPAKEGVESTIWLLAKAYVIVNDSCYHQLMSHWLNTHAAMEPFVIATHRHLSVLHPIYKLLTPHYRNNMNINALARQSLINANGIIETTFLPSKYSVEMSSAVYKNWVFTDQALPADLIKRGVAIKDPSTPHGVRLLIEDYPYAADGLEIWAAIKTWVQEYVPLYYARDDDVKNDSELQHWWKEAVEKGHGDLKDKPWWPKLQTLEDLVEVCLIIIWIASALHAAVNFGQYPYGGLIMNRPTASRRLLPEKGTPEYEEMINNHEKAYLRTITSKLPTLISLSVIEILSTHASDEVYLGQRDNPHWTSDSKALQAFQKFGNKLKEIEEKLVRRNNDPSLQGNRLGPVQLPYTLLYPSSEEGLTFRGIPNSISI
In words: In vitro 15-LOX inhibition assay (lipoxygenase inhibitor screening kit, Cayman). The class given is biochemical. As for the experimental part: as §1, §2

For assay [5], the system named is formalin-induced rat paw oedema. Kind of assay: Formalin-induced paw oedema test (acute inflammation model). The class given is in vivo, Wistar rats. Particulars: oral 5 mg/kg once daily for seven days; oedema 4 h after formalin; vs diclofenac sodium and celecoxib 5 mg/kg. The method, then: A freshly prepared 5% formalin solution (prepared from 37% formaldehyde and saline (Merck, Germany)) was used as a phlogistic agent. Test and reference compounds (5 mg/kg body weight) were dissolved in DMSO and given orally with gastric gavage once per day for seven consecutive days, whereas DMSO was administered to the control group. On the 8th day, the initial paw volume was determined by a Vernier calliper. Then, a subcutaneous injection of 40 μl formalin was introduced into the right hind paw of all groups under light ether anaesthesia. The paw volume was measured 4 h after the formalin injection and the oedema volume was calculated by the difference in paw volume before and 4 h after the formalin injection. The percentage inhibition of oedema (or % protection against inflammation) was calculated for each compound as previously reported[34]^,[35].

“Also recorded” adds a separate entry of the source.

The IC50 is the concentration at which inhibition is half-maximal. As to `COc1ccc(-c2nn(-c3ccccc3)cc2/C=C2\SC(N3CCCCC3)=NC2=O)cc1` [Compound 7, (Z)-5-((3-(4-methoxyphenyl)-1-phenyl-1H-pyrazol-4-yl)methylene)-2-(piperidin-1-yl)thiazol-4(5H)-one], the IC50 in assay [1] (Homo sapiens, THP-1, 6 h pre-incubation, PMA 25 nM 24 h then LPS 100 ng/ml 72 h, MTS, read-out: IC50 inhibition of THP-1 monocyte differentiation into M1 macrophages) came out at 15 µM; in assay [2], 10.3 µM; in assay [4] (mean of three determinations), 3.52 µM. Further, the “Inhibition of THP-1 differentiation into M1 macrophages (in words)” value in assay [1] (PMA then LPS, diclofenac as reference) was “potent inhibitory effects on monocyte-to-macrophage differentiation; also recorded: higher potency compared to diclofenac”. The “M1 macrophage cell viability” value in assay [3] is listed as “tended to slightly decrease”. Moreover, the “15-LOX inhibition, potency compared with quercetin (in words)” value in assay [4] is listed as “almost equipotent to quercetin”. Moreover, the “Inhibition of formalin-induced rat paw oedema (in words)” value in assay [5] is “as effective as either diclofenac or celecoxib”.
